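In this assay, cells in 96-well plates receive the compound at five concentrations for 48 hours. Endpoints are linearly interpolated between the surrounding concentrations. GI50 = concentration required for 50% inhibition of growth.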 Active and inactive are the calls of the source. No stated cut-off is given here; in the data, active = GI50 up to about 1.1 µM and inactive = higher.
Legend:
Test in all cases: DTP human tumour cell line panel, 48 h
CCRF-CEM = system: CCRF-CEM
ACHN = system: ACHN
BT-549 = system: BT-549
NCI/ADR-RES = system: NCI/ADR-RES
SW-620 = system: SW-620
DU-145 = system: DU-145
OVCAR-4 = system: OVCAR-4
OVCAR-5 = system: OVCAR-5
HCT-116 = system: HCT-116
PC-3 = system: PC-3
LOX IMVI = system: LOX IMVI
HL-60 = system: HL-60
A498 = system: A498
SK-MEL-5 = system: SK-MEL-5
TK-10 = system: TK-10
OVCAR-8 = system: OVCAR-8
MOLT-4 = system: MOLT-4
Malme-3M = system: Malme-3M
NCI-H226 = system: NCI-H226

| SMILES | GI50 (CCRF-CEM) | GI50 (ACHN) | GI50 (BT-549) | GI50 (NCI/ADR-RES) | GI50 (SW-620) | GI50 (DU-145) | GI50 (OVCAR-4) | GI50 (OVCAR-5) | GI50 (HCT-116) | GI50 (PC-3) | GI50 (LOX IMVI) | GI50 (HL-60) | GI50 (A498) | GI50 (SK-MEL-5) | GI50 (TK-10) | GI50 (OVCAR-8) | GI50 (MOLT-4) | GI50 (Malme-3M) | GI50 (NCI-H226) |
| --- | --- | --- | --- | --- | --- | --- | --- | --- | --- | --- | --- | --- | --- | --- | --- | --- | --- | --- | --- |
| CC(C)(C)NC(=O)/C(=C\Sc1ccccc1)c1ccc2c(c1)OCO2 | 28.5 µM (inactive) | 36.9 µM (inactive) | 75.9 µM (inactive) | 24.2 µM (inactive) | 37.8 µM (inactive) | 37.2 µM (inactive) | 51.3 µM (inactive) | 30.6 µM (inactive) | 24.3 µM (inactive) | 22.5 µM (inactive) | 16.1 µM (inactive) | 18.7 µM (inactive) | 20.4 µM (inactive) | 17.6 µM (inactive) | 44.8 µM (inactive) | 32 µM (inactive) | 21.9 µM (inactive) |  |  |
| N#C[BH2-][n+]1cn(C2CC(O)C(COP(=O)(O)OC3CC(n4cnc5c(=O)[nH]c(N)nc54)OC3CO)O2)c2nc(N)[nH]c(=O)c21 (configuration not stated) | 20.5 µM (inactive) | > 100 µM (inactive) | 6.25 µM (inactive) | > 100 µM (inactive) | > 100 µM (inactive) | > 100 µM (inactive) | > 100 µM (inactive) | > 100 µM (inactive) | > 100 µM (inactive) | 66.4 µM (inactive) |  | > 100 µM (inactive) | > 100 µM (inactive) | > 100 µM (inactive) |  | > 100 µM (inactive) |  | > 100 µM (inactive) | 23.1 µM (inactive) |
| CN(C(=O)[C@@H](NC(=O)OC(C)(C)C)c1ccccc1)[C@H]1CCCC[C@@H]1N1CCCC1 |  | > 100 µM (inactive) | > 100 µM (inactive) | > 100 µM (inactive) | > 100 µM (inactive) | > 100 µM (inactive) | > 100 µM (inactive) | > 100 µM (inactive) | > 100 µM (inactive) | > 100 µM (inactive) |  | > 100 µM (inactive) | > 100 µM (inactive) | > 100 µM (inactive) | > 100 µM (inactive) | > 100 µM (inactive) | > 100 µM (inactive) |  | > 100 µM (inactive) |
| CCN(CC)Cc1ccc(Nc2c3ccccc3nc3ccccc23)cc1 | 1.82 µM (inactive) | 0.364 µM (active) | 10.1 µM (inactive) | 5.48 µM (inactive) | 1.64 µM (inactive) | 2.37 µM (inactive) | 2.57 µM (inactive) | 2.17 µM (inactive) | 1.16 µM (inactive) | 1.59 µM (inactive) | 1.56 µM (inactive) | 2.79 µM (inactive) | 3.09 µM (inactive) | 1.71 µM (inactive) | 6.14 µM (inactive) | 3.05 µM (inactive) | 0.955 µM (active) | 1.36 µM (inactive) |  |
| CCCC#CC(O)(C(=O)OC1CCN(C)CC1)C1CCCCC1 (configuration not stated) | > 100 µM (inactive) | > 100 µM (inactive) | 88.7 µM (inactive) | > 100 µM (inactive) | > 100 µM (inactive) | > 100 µM (inactive) | > 100 µM (inactive) | > 100 µM (inactive) | > 100 µM (inactive) | 48.3 µM (inactive) | > 100 µM (inactive) |  | 94.6 µM (inactive) | 38.9 µM (inactive) | > 100 µM (inactive) | > 100 µM (inactive) | 91.6 µM (inactive) | > 100 µM (inactive) | 94.4 µM (inactive) |
| CCOC1OC(CO[Si](C)(C)C(C)(C)C)C(O)CC1n1ccc(=O)[nH]c1=O (configuration not stated) |  | > 100 µM (inactive) | > 100 µM (inactive) | > 100 µM (inactive) | 23.2 µM (inactive) | > 100 µM (inactive) | > 100 µM (inactive) | > 100 µM (inactive) | 17.1 µM (inactive) | 64.7 µM (inactive) | 17.4 µM (inactive) |  | > 100 µM (inactive) | 59.2 µM (inactive) | > 100 µM (inactive) | 33.7 µM (inactive) | 27.7 µM (inactive) | > 100 µM (inactive) | > 100 µM (inactive) |
| N#Cc1c(-c2cccc(Cl)c2)cc(-c2ccc(Cl)cc2)nc1N | 18.3 µM (inactive) | 17.7 µM (inactive) | 18.6 µM (inactive) | 22 µM (inactive) | 17.5 µM (inactive) | 32.9 µM (inactive) | 15.7 µM (inactive) | 21.7 µM (inactive) | 16.5 µM (inactive) | 17.2 µM (inactive) | 17.1 µM (inactive) | 38.1 µM (inactive) |  | 16.1 µM (inactive) | 19.7 µM (inactive) | 24.6 µM (inactive) | 19 µM (inactive) | 28.1 µM (inactive) | 16.3 µM (inactive) |
| O=C1c2ccccc2C2(c3ccc(F)cc3)NCCN12 (configuration not stated) | > 100 µM (inactive) | > 100 µM (inactive) | > 100 µM (inactive) | > 100 µM (inactive) | > 100 µM (inactive) | > 100 µM (inactive) | > 100 µM (inactive) | > 100 µM (inactive) | > 100 µM (inactive) | > 100 µM (inactive) |  | > 100 µM (inactive) |  | > 100 µM (inactive) | > 100 µM (inactive) | > 100 µM (inactive) | > 100 µM (inactive) | > 100 µM (inactive) | > 100 µM (inactive) |

— ChEMBL document CHEMBL1201862, “PubChem BioAssay data set” (2004)
